# How the values were obtained:
# Alternaria solani = assay: In vivo preventive test on Alternaria test (tomatoes) (Example G1); conditions: 3 days after inoculation
# Excerpt: (§1) A synergistic effect of fungicides is always present when the fungicidal activity of the active compound combinations exceeds the total of the activities of the active compounds when applied individually. The expected activity for a given combination of two active compounds can be calculated as follows (cf. Colby, S. R., “Calculating Synergistic and Antagonistic Responses of Herbicide Combinations,” Weeds 1967, 15, 20-22):
# (§2) If • X is the efficacy when active compound A is applied at an application rate of m ppm (or g/ha), • Y is the efficacy when active compound B is applied at an application rate of n ppm (or g/ha), • Z is the efficacy when active compound […] ppm (or g/ha), • E1 is the efficacy when the active compounds A and B are applied at application rates of m and n ppm (or g/ha), respectively, and • E2 is the efficacy when the active compounds A, B and C are applied at application rates of m, n and r ppm (or g/ha), respectively, and then
# (§3) The degree of efficacy, expressed in % is denoted. 0% means an efficacy which corresponds to that of the control while an efficacy of 100% means that no disease is observed.
# (§4) If the actual fungicidal activity exceeds the calculated value, then the activity of the combination is superadditive, i.e., a synergistic effect exists. In this case, the efficacy which was actually observed must be greater than the value for the expected efficacy (E) calculated from the abovementioned formula.
# (§5) Solvent: 24.5 parts by weight of acetone • 24.5 parts by weight of dimethyl sulfoxide
# (§6) Emulsifier: 1 part by weight of alkylaryl polyglycol ether
# (§7) To produce a suitable preparation of active compound, 1 part by weight of active compound is mixed with the stated amounts of solvent and emulsifier, and the concentrate is diluted with water to the desired concentration.
# (§8) To test for preventive activity, young plants are sprayed with the preparation of active compound at the stated rate of application. After the spray coating has dried on, the plants are inoculated with an aqueous spore suspension of Alternaria solani. The plants are then placed in an incubation cabinet at approximately 20° C. and a relative atmospheric humidity of 100%.
# The test is evaluated 3 days after the inoculation. 0% means an efficacy which corresponds to that of the untreated control while an efficacy of 100% means that no disease is observed.
# Venturia inaequalis = assay: In vivo preventive test on Venturia test (apples) (Example G2); conditions: 10 days after inoculation
# Excerpt: as §1, §2, §3, §4, §5, §6, §7
# as §8, with “conidia” for “spore”, “the causal agent of apple scab (Venturia inaequalis) and” for “Alternaria solani. The plants are”, “remain for 1 day” for “placed”
# The plants are then placed in a greenhouse at approximately 21° C. and a relative atmospheric humidity of approximately 90%.
# The test is evaluated 10 days after the inoculation. 0% means an efficacy which corresponds to that of the untreated control, while an efficacy of 100% means that no disease is observed.
# lentils = assay: Field trials in lentils Western Canada 2018, yield (Example H); assay type: in vivo
# Protocol: Field trials in lentils were conducted in Western Canada in spring/summer 2018.
# (§9) Fertilization and herbicide applications were carried out according to the local agricultural practice.
# (§10) Fluopyram was added to Delaro in a final concentration of 50, 75 and 90 g/ha.
# The following products as shown in Table 18 were sprayed using a Backpack hand boom sprayer with air induction flat fan spray nozzles applying 93.5 L/Ha spray solution at crop BBCH—growth stage 62-63.
# field peas = assay: Field trials in field peas Western Canada 2018, yield (Example I); assay type: in vivo
# Protocol: Field trials in field peas were conducted in Western Canada in spring/summer 2018.
# as §9, §10
# The following products as shown in Table 20 were sprayed using a Backpack hand boom sprayer with flat fan spray nozzles applying 93.5 L/ha spray solution at crop BBCH growth stage 63.
compound,measurement,setting,value
"O=C(NCCc1ncc(C(F)(F)F)cc1Cl)c1ccccc1C(F)(F)F [Fluopyram, N-[2-[3-chloro-5-(trifluoromethyl)-2-pyridinyl]ethyl]-2-(trifluoromethyl)benzamide]",Efficacy %,Alternaria solani; fluopyram 0.75 ppm,5%
same,Efficacy %,Alternaria solani; fluopyram 1.5 ppm,8%
same,Efficacy %,Alternaria solani; fluopyram 3 ppm,10%
same,Efficacy %,Venturia inaequalis; fluopyram 0.75 ppm,0%
same,Efficacy %,Venturia inaequalis; fluopyram 1.5 ppm,0%
same,Efficacy %,Venturia inaequalis; fluopyram 3 ppm,5%
same,Yield [% of Priaxor treatment-Priaxor is 100%],"lentils; BBCH 62-63, Fluopyram 50 g/ha",93.8 % of Priaxor treatment
same,Yield [% of Priaxor treatment-Priaxor is 100%],"lentils; BBCH 62-63, Fluopyram 75 g/ha",96.3 % of Priaxor treatment
same,Yield [% of Priaxor treatment-Priaxor is 100%],"field peas; BBCH 63, Fluopyram 50 g/ha",98.9 % of Priaxor treatment
same,Yield [% of Priaxor treatment-Priaxor is 100%],"field peas; BBCH 63, Fluopyram 75 g/ha",99.7 % of Priaxor treatment
"OC(Cc1ccccc1Cl)(Cn1nc[nH]c1=S)C1(Cl)CC1 (stereo not shown) [Prothioconazole, 2-[2-(1-chlorocyclopropyl)-3-(2-chlorophenyl)-2-hydroxypropyl]-1,2-dihydro-3H-1,2,4-triazole-3-thione]",Efficacy %,Alternaria solani; prothioconazole 1.05 ppm,0%
same,Efficacy %,Alternaria solani; prothioconazole 2.1 ppm,0%
same,Efficacy %,Alternaria solani; prothioconazole 4.2 ppm,10%
same,Efficacy %,Venturia inaequalis; prothioconazole 1.05 ppm,0%
same,Efficacy %,Venturia inaequalis; prothioconazole 2.1 ppm,17%
same,Efficacy %,Venturia inaequalis; prothioconazole 4.2 ppm,41%
"CO/N=C(/C(=O)OC)c1ccccc1CO/N=C(\C)c1cccc(C(F)(F)F)c1 [Trifloxystrobin, methylalpha-(methoxyimino)-2-[[[[1-[3-(trifluoromethyl)phenyl]ethylidene]amino]oxy]methyl]-benzeneacetate]",Efficacy %,Alternaria solani; trifloxystrobin 0.9 ppm,23%
same,Efficacy %,Alternaria solani; trifloxystrobin 1.8 ppm,31%
same,Efficacy %,Alternaria solani; trifloxystrobin 3.6 ppm,41%
same,Efficacy %,Venturia inaequalis; trifloxystrobin 0.9 ppm,40%
same,Efficacy %,Venturia inaequalis; trifloxystrobin 1.8 ppm,65%
same,Efficacy %,Venturia inaequalis; trifloxystrobin 3.6 ppm,89%

# From patent US12439919B2, “Active compound combinations” (priority 2019, dated 2025)
